Experimental data reported in US20250241974A1, “COMPOSITIONS AND METHODS FOR WOUND HEALING” (University of Maine System Board of Trustees, priority 2024, published 2025).

Tested on: excision wounds
Test: Wound healing assay with CNF hydrogel formulation (Example IV)
Type: in vivo
Conditions: citric acid as cross-linking agent

Structure (SMILES): O=C(O)CC(O)(CC(=O)O)C(=O)O [citric acid]
- effect on all parameters studied: does not have any effect
